Measured values reported in patent publication US12139520B2 (priority 2020, dated 2024).
Bridge positions count the residues as written; N and C are the ends. Square brackets hold non-standard residues; d marks the D form. Peptide text beside a SMILES is read from it. Hyp = O=C(O)[C@@H]1C[C@@H](O)CN1; Cit = NC(=O)NCCC[C@H](N)C(=O)O

Columns and labels:
[1] = molecular target: T1, hAMY3 receptor (Homo sapiens, UniProt O60896+P30988); assay: cAMP assay for in vitro receptor activation, hAMY3-R; format: cell-based; conditions: cAMP assay, hAMY3 receptor; read-out: hAMY3R EC50
T1 sequence (P30988 25-474): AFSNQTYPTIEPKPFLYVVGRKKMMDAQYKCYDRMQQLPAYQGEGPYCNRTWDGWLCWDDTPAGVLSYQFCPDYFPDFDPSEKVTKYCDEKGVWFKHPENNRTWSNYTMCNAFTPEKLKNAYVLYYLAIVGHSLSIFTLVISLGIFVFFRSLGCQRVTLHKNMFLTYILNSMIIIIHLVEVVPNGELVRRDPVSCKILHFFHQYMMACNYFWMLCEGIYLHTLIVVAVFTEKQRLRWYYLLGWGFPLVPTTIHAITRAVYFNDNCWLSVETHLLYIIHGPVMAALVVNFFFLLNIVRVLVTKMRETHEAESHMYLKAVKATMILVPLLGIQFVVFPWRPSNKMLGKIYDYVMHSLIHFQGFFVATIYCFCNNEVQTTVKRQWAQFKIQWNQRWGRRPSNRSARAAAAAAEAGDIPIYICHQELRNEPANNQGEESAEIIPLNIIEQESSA
T1 sequence (O60896 24-148 partner): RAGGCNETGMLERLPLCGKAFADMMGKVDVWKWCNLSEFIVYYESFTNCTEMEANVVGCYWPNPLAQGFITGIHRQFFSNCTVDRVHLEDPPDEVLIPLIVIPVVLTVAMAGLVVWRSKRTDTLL
Outline: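 Monoclonal cell line stably overexpressing human AMY3 receptor, 2000 cells/well in DPBS with 0.05% casein and 0.5 mM IBMX. Stimulated 30 min at room temperature with graded compound doses, human amylin as positive control. cAMP accumulation read by TR-FRET after one hour.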

[2] = molecular target: hAM1 receptor (Homo sapiens, UniProt O60895+Q16602); assay: cAMP assay for in vitro receptor activation, hAM1-R; format: cell-based; conditions: cAMP assay, hAM1 receptor; read-out: hAM1R EC50
Outline: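 Read-out is intracellular cAMP as a measure of receptor activation. Cells stably overexpressing hAM1 were subcloned to a monoclonal line, then thawed and seeded at 8000 cells/well in DPBS with 0.05% casein and the phosphodiesterase inhibitor IBMX at 0.5 mM.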

[3] = Physical stability of peptide analogues (Thioflavin T fibrillation); format: physicochemical; conditions: maximum ThT signal normalized between hAMY maximum and buffer background; 40° C., shaking, four days; pH 7 per table title
Outline: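 Maximum ThT emission at 480 nm, after LOESS smoothing, is given as percent of the span from buffer background to hAMY. Conditions: 50 mM buffer at pH 4 or 7, 4 μM dye, 40 °C, repeated shaking, readings every 10 min for four days.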

hAM1 receptor, sequence (Q16602 23-461): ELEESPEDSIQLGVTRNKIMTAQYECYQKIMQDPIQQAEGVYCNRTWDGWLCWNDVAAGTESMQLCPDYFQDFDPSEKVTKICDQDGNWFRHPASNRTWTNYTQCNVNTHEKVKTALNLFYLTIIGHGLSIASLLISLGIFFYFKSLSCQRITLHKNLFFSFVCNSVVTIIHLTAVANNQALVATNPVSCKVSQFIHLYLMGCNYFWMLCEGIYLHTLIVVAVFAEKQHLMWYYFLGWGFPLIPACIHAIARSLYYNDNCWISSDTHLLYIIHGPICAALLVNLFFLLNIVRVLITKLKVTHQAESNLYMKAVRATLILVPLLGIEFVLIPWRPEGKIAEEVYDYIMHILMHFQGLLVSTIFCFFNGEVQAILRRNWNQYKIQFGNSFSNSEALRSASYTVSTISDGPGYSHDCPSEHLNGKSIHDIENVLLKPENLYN
hAM1 receptor, sequence (O60895 43-175 partner): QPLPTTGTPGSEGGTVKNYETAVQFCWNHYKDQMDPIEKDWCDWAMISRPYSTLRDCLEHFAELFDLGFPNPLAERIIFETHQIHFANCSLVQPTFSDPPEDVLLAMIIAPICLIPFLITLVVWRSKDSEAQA

Row | SMILES | EC50 [1] | EC50 [2] | Max ThT signal (%) [3]
1 | CC[C@H](C)[C@H](NC(=O)[C@H](CCC(N)=O)NC(=O)[C@H](Cc1c[nH]cn1)NC(=O)[C@H](C)NC(=O)[C@H](CC(C)C)NC(=O)[C@H](Cc1c[nH]c2ccccc12)NC(=O)[C@H](CCC(N)=O)NC(=O)[C@@H](NC(=O)[C@@H](NC(=O)[C@@H]1CSSC[C@H](NC(=O)[C@@H](N)CCCCN)C(=O)N[C@@H](CC(N)=O)C(=O)N[C@@H]([C@@H](C)O)C(=O)N[C@@H](C)C(=O)N[C@@H]([C@@H](C)O)C(=O)N1)[C@@H](C)O)C(C)C)C(=O)N[C@@H](Cc1ccc(O)cc1)C(=O)N[C@@H](CCC(N)=O)C(=O)N[C@@H](Cc1ccccc1)C(=O)N[C@@H](CC(=O)O)C(=O)N[C@@H](CCCCN)C(=O)N[C@@H](CC(=O)O)C(=O)N[C@@H](CCCCN)C(=O)N[C@@H](CC(=O)O)C(=O)N[C@@H](CC(N)=O)C(=O)N[C@H](C(=O)N[C@@H](C)C(=O)N1CCC[C@H]1C(=O)N1CCC[C@H]1C(=O)N[C@H](C(=O)N[C@@H](CC(N)=O)C(=O)N[C@H](C(=O)NCC(=O)N[C@@H](CO)C(=O)N[C@@H](CC(N)=O)C(=O)NCC(=O)N1C[C@H](O)C[C@H]1C(N)=O)C(C)C)[C@@H](C)O)C(C)C [compound 329] (H-KCNTATCTVQWLAHQIYQFDKDKDNVAPPTNVGSNG[Hyp]-NH2; disulfide 2-7; N-terminus assumed) | 0.032 nM | > 5000 nM | 6.350%
2 | CC[C@H](C)[C@H](NC(=O)[C@H](CCC(N)=O)NC(=O)[C@H](Cc1c[nH]cn1)NC(=O)[C@H](C)NC(=O)[C@H](CC(C)C)NC(=O)[C@H](CCCNC(N)=O)NC(=O)[C@H](CCC(N)=O)NC(=O)[C@@H](NC(=O)[C@@H](NC(=O)[C@@H]1CSSC[C@H](NC(=O)CN)C(=O)N[C@@H](CCCNC(=N)N)C(=O)N[C@@H]([C@@H](C)O)C(=O)NCC(=O)N[C@@H]([C@@H](C)O)C(=O)N1)[C@@H](C)O)C(C)C)C(=O)N[C@@H](Cc1ccc(O)cc1)C(=O)N[C@@H](CCC(N)=O)C(=O)N[C@@H](Cc1ccccc1)C(=O)N[C@H](C(=O)N[C@@H](CC(=O)O)C(=O)N[C@@H](CCCCN)C(=O)N[C@@H](CC(=O)O)C(=O)N[C@@H](CCCCN)C(=O)N[C@@H](CC(=O)O)C(=O)N[C@@H](CC(N)=O)C(=O)N[C@H](C(=O)N[C@@H](C)C(=O)N1CCC[C@H]1C(=O)N[C@@H](CCCNC(=N)N)C(=O)N[C@@H](CO)C(=O)N[C@@H](CCCCN)C(=O)N[C@H](C(=O)NCC(=O)N1CCC[C@H]1C(=O)N[C@@H](CCC(N)=O)C(=O)NCC(=O)N[C@@H](Cc1ccc(O)cc1)C(N)=O)C(C)C)C(C)C)[C@@H](C)O [compound 285] (H-GCRTGTCTVQ[Cit]LAHQIYQFTDKDKDNVAPRSKVGPQGY-NH2; disulfide 2-7; N-terminus assumed) | 0.157 nM | > 5000 nM | 31.200%
3 | CC[C@H](C)[C@H](NC(=O)[C@H](CC(N)=O)NC(=O)[C@@H](NC(=O)[C@H](CCCNC(=N)N)NC(=O)[C@@H]1CCCN1C(=O)[C@H](C)NC(=O)[C@@H](NC(=O)[C@H](CC(N)=O)NC(=O)[C@H](CC(=O)O)NC(=O)[C@H](CCCCN)NC(=O)[C@H](CC(=O)O)NC(=O)[C@H](CCCCN)NC(=O)[C@H](CC(=O)O)NC(=O)[C@@H](NC(=O)[C@H](Cc1ccccc1)NC(=O)[C@H](CCC(N)=O)NC(=O)[C@H](Cc1ccc(O)cc1)NC(=O)[C@@H](NC(=O)[C@H](CCC(N)=O)NC(=O)[C@H](Cc1c[nH]cn1)NC(=O)[C@H](C)NC(=O)[C@H](CC(C)C)NC(=O)[C@H](Cc1c[nH]c2ccccc12)NC(=O)[C@H](CCC(N)=O)NC(=O)[C@@H](NC(=O)[C@@H](NC(=O)[C@@H]1CSSC[C@H](NC(=O)CN)C(=O)N[C@@H](CCCNC(=N)N)C(=O)N[C@@H]([C@@H](C)O)C(=O)NCC(=O)N[C@@H]([C@@H](C)O)C(=O)N1)[C@@H](C)O)C(C)C)[C@@H](C)CC)[C@@H](C)O)C(C)C)[C@@H](C)O)C(=O)NCC(=O)N1CCC[C@H]1C(=O)N[C@@H](CC(N)=O)C(=O)NCC(=O)N[C@@H](Cc1ccc(O)cc1)C(N)=O [compound 348] (H-GCRTGTCTVQWLAHQIYQFTDKDKDNVAPRTNIGPNGY-NH2; disulfide 2-7; N-terminus assumed) | 0.041 nM | > 5000 nM | 2.750%
4 | CC[C@H](C)[C@H](NC(=O)[C@H](CCC(N)=O)NC(=O)[C@H](Cc1c[nH]cn1)NC(=O)[C@H](C)NC(=O)[C@H](CC(C)C)NC(=O)[C@H](CCCNC(=N)N)NC(=O)[C@H](CCC(N)=O)NC(=O)[C@@H](NC(=O)[C@@H](NC(=O)[C@@H]1CSSC[C@H](NC(=O)CN)C(=O)N[C@@H](CCCNC(=N)N)C(=O)N[C@@H]([C@@H](C)O)C(=O)NCC(=O)N[C@@H]([C@@H](C)O)C(=O)N1)[C@@H](C)O)C(C)C)C(=O)N[C@@H](Cc1ccc(O)cc1)C(=O)N[C@@H](CCC(N)=O)C(=O)N[C@@H](Cc1ccccc1)C(=O)N[C@H](C(=O)N[C@@H](CC(=O)O)C(=O)N[C@@H](CCCCN)C(=O)N[C@@H](Cc1ccccc1)C(=O)N[C@@H](CCCCN)C(=O)N[C@@H](CC(=O)O)C(=O)N[C@@H](CC(N)=O)C(=O)N[C@H](C(=O)N[C@@H](C)C(=O)N1CCC[C@H]1C(=O)N[C@@H](CCCNC(=N)N)C(=O)N[C@@H](CO)C(=O)N[C@@H](CCCCN)C(=O)N[C@H](C(=O)N[C@@H](CO)C(=O)N1CCC[C@H]1C(=O)N[C@@H](CCC(N)=O)C(=O)N[C@H](C(=O)N[C@@H](Cc1ccccc1)C(N)=O)[C@@H](C)O)[C@@H](C)CC)C(C)C)[C@@H](C)O [compound 239] (H-GCRTGTCTVQRLAHQIYQFTDKFKDNVAPRSKISPQTF-NH2; disulfide 2-7; N-terminus assumed) | 0.236 nM | > 5000 nM | 0.200%
5 | CC[C@H](C)[C@H](NC(=O)[C@H](CC(N)=O)NC(=O)[C@@H](NC(=O)[C@H](CCCNC(=N)N)NC(=O)[C@@H]1CCCN1C(=O)[C@H](C)NC(=O)[C@@H](NC(=O)[C@H](CC(N)=O)NC(=O)[C@H](CC(=O)O)NC(=O)[C@H](CCCCN)NC(=O)[C@H](CC(=O)O)NC(=O)[C@H](CCCCN)NC(=O)[C@H](CC(=O)O)NC(=O)[C@@H](NC(=O)[C@H](Cc1ccccc1)NC(=O)[C@H](CCC(N)=O)NC(=O)[C@H](Cc1ccc(O)cc1)NC(=O)[C@@H](NC(=O)[C@H](CCC(N)=O)NC(=O)[C@H](Cc1c[nH]cn1)NC(=O)[C@H](C)NC(=O)[C@H](CC(C)C)NC(=O)[C@H](Cc1c[nH]c2ccccc12)NC(=O)[C@H](CCC(N)=O)NC(=O)[C@@H](NC(=O)[C@@H](NC(=O)[C@@H]1CSSC[C@H](NC(=O)CN)C(=O)N[C@@H](CCCNC(=N)N)C(=O)N[C@@H]([C@@H](C)O)C(=O)NCC(=O)N[C@@H]([C@@H](C)O)C(=O)N1)[C@@H](C)O)C(C)C)[C@@H](C)CC)[C@@H](C)O)C(C)C)[C@@H](C)O)C(=O)NCC(=O)N1CCC[C@H]1C(=O)N[C@@H](CCC(N)=O)C(=O)NCC(=O)N1C[C@H](O)C[C@H]1C(N)=O [compound 341] (H-GCRTGTCTVQWLAHQIYQFTDKDKDNVAPRTNIGPQG[Hyp]-NH2; disulfide 2-7; N-terminus assumed) | 0.029 nM | > 5000 nM | 20.500%
